Results on 64 molecules are retold here after a melting point compilation (Tetko et al.; mined from patent text by program, amines drawn as free bases though some values may be those of a salt).

Some results are limits rather than exact numbers.

Take `CCc1ccc(C(=O)Sc2ccccn2)cc1`: the melting point (commonly the temperature of the solid-liquid transition) lay in the range of 48 to 50 °C.

`CC1Cc2cccc(S(N)(=O)=O)c2O1` (centres undefined) had a melting point of 174 to 177 °C.

Regarding `CCOC(=O)N1CCN(c2nc(C)nc3c2OCC(=O)N3CC(N)=O)CC1`, the melting point fell in the range of 225 to 227 °C.

Molecule `COc1ccccc1-n1c(=O)[nH]c2c(C(N)=O)nc(N[C@H]3CC[C@H](O)CC3)nc21` had a melting point of 165 to 167 °C.

With `CCCCCS(=O)(=O)NC(=O)/C=C/c1ccc(OCC(C)=O)cc1Oc1ncc(C(F)(F)F)cc1Cl`, the melting point lay within 187 to 188 °C.

As for `CCOC(=O)NNS(=O)(=O)c1ccc(C)cc1`, the melting point lay within 105 to 106 °C.

Molecule `CN=C(NC#N)C1=CC(C)(COC)Oc2ccc([N+](=O)[O-])cc21` (centres undefined) yielded a melting point of 121 to 125 °C.

Molecule `NCC1Cc2cc(Cl)cc(-c3ccoc3)c2O1` (centres undefined) had a melting point of more than 250 °C.

Consider `O=C(N[C@H](Cc1ccccc1)C(=O)O)OCc1cc2cc(-c3ccccc3)ccc2o1`, for which the melting point lay within 154 to 156 °C.

The molecule `CCOC(=O)Cc1sc(Sc2ccnc(SC)n2)nc1C` displayed a melting point of 68 to 72 °C.

Molecule `O=[N+]([O-])c1sc(I)nc1I` had a melting point of 135 °C.

Turning to `Cc1nc(=O)[nH]c2ccc(Cl)cc12`, the melting point was more than 270 °C.

The molecule `C(=C\c1nc(COc2ccc(CCCn3cncn3)cc2)co1)/c1ccccc1` yielded a melting point of 108 to 109 °C.

For the molecule `COC(=O)C(NS(=O)(=O)c1ccc(-c2ccc(NC(=O)c3oc4cccc(C(O)CO)c4c3C)cc2)cc1)C(C)C` (centres undefined), the melting point fell in the range of 90 to 95 °C.

In turn, `COc1ccc(C(=O)Nc2ccccc2)cc1NC(=S)Nc1cccc(C#N)c1` came in with a melting point of 183 to 185 °C.

For the molecule `Cc1ccnc(C(=O)c2[nH]c3ccc(Cl)cc3c2CC(=O)NCCN)c1`, the melting point was determined as 166 °C.

The molecule `O=C(NC(=O)c1c(O)cccc1F)Nc1ccc(Cl)cc1` returned a melting point of 215 °C.

As to `CCCCc1nc(C(F)(F)F)c(C(=O)OCC)n1O`, the melting point was 77.5 to 80.5 °C.

The molecule `C/C(=C\c1ccc(OC(C)C)cc1Oc1ncc(C(F)(F)F)cc1Cl)C(=O)NS(=O)(=O)NCC1CCCO1` (centres undefined) gave a melting point of 125 to 126 °C.

In turn, `CCCCCCCCCCOc1ccc(-c2ccc(C(C)=O)cc2)cc1` displayed a melting point of 102 to 104 °C.

The molecule `Cc1oc(-c2ccc(F)cc2)nc1CCOc1ccc(CN(O)C(N)=O)cc1` showed a melting point of 158 to 160 °C.

Take `CCOC(=O)c1nc2scc(COCc3ccccc3)c2c(=O)[nH]1`: the melting point lay in the range of 155 to 156 °C.

The molecule `Cc1ccc(Br)c(C)c1C(=O)O` had a melting point of 121 °C.

As to `CC(=O)Nc1nc2cc(-c3ccc(C=C4SC(=O)NC4=O)cn3)cc(C34CC5CC(CC(C5)C3)C4)c2o1`, the melting point was more than 360 °C.

In turn, `COc1ccc([C@H]2CCCN2[S@@](=O)C(C)(C)C)cc1` came in with a melting point of 61 to 63 °C.

`CC(C)(C)OC(=O)N1CCC[C@@H](O)[C@H](N)C1` registered a melting point of 64 to 67 °C.

`Clc1cccc(Oc2ccc3[nH]ccc3c2)n1` yielded a melting point of 117 to 118 °C.

Regarding `O=C1OC(=Cc2ccc(Cl)c([N+](=O)[O-])c2)c2ccccc21`, the melting point fell in the range of 198 to 204 °C.

Molecule `COc1cccc(OC2COc3ccc(OCc4cc(OC)ccn4)cc3C2O)c1` (centres undefined) registered a melting point of 165 to 166 °C.

Take `CCCCNC(=O)NS(=O)(=O)c1ccc(CCNC(=O)N2Cc3c(Cl)cc(Cl)cc3C2=O)cc1`: the melting point is 190 to 192 °C.

`Oc1ccc(OCCCCCCBr)cc1` displayed a melting point of 43 to 45 °C.

The molecule `COc1ccc(NC(=O)c2ccc(F)c(F)c2)cc1NS(=O)(=O)c1cccc(C#N)c1` had a melting point of 212 to 214 °C.

For the molecule `CSc1ccc(/C=C2/C(C)=C(CCCCN(O)C(N)=O)c3cc(F)ccc32)cc1`, the melting point lay within 154 to 157 °C.

Regarding `O=C(NCC1CNc2ccccc2C1)OCc1ccccc1` (centres undefined), the melting point is 115 to 116 °C.

`Oc1ccc2nc(-c3ccc(O)c(F)c3)cc(-c3ccc(Cl)cc3)c2c1` came in with a melting point of 140 to 147 °C.

Take `O=c1c2ccc(Cl)cc2[nH]c2c(=O)n(-c3ccc(F)cc3)nc(O)c12`: the melting point is 390 to 392 °C.

`COc1cnn(C)c(=O)c1Cl`: the melting point lay in the range of 189 to 191 °C.

Consider `O=C(c1ccccc1)c1ccc([N+](=O)[O-])c(F)c1`, for which the melting point was in the range of 77 to 79 °C.

In the case of `CC(=O)Oc1ccccc1C1SC[C@@H](C(=O)O)N1C(=O)CCSC(=O)c1ccc(C)cc1` (some centres undefined), the melting point lay in the range of 93 to 96 °C.

On to `O=c1c2c(c3cccnc3n1-c1ccccc1)N(c1ccccc1)CC2`, for which the melting point was in the range of 220 to 222 °C.

`NS(=O)(=O)c1cc2sc(C=O)cc2s1`: the melting point lay within 203 to 204 °C.

With `CCOC(=O)NC(=O)CC(=O)NC(=O)OCC`, the melting point lay in the range of 177 to 178 °C.

For the molecule `N=C(N)c1ccc(N2CCC(N3CCN(CCC(=O)O)C3=O)CC2)cc1`, the melting point is more than 275 °C.

`CCS(=O)(=O)CCC(=O)NNC(=O)N1Cc2ccccc2Oc2ccc(NS(C)(=O)=O)cc21` showed a melting point of 211 to 212 °C.

For `O=C1c2cc(Cl)c(Cl)cc2C(O)N1CCCl` (centres undefined), the melting point was in the range of 147 to 149 °C.

In turn, `CN(c1cccc2cc(C3=NCC(CC(=O)O)S3)[nH]c12)S(=O)(=O)c1ccccc1C(F)(F)F` (centres undefined) returned a melting point of 170 to 172 °C.

`CNc1nc2c(C)cccc2c2c1CCN2c1ccccc1C`: the melting point was in the range of 165 to 167 °C.

Take `Clc1ccc(CNc2cncnc2)cc1`: the melting point worked out at 121 °C.

`Cc1c(N)cccc1CO` yielded a melting point of 104 to 106 °C.

`Cc1ccc(C(=O)C2=C(O)C(=O)N(c3ncc(S(=O)(=O)c4ccc([N+](=O)[O-])cc4)s3)C2c2cccnc2)cc1` (centres undefined) returned a melting point of 211 °C.

Turning to `O=C(c1ccccc1SSc1ccccc1C(=O)N1CCC(CO)C1)N1CCC(CO)C1` (centres undefined), the melting point was in the range of 169 to 171 °C.

In turn, `CCn1cc(C(=O)O)c(=O)c2cc(F)c(N3CCN(C(=O)OC(OC(=O)c4ccccc4)C(=O)OC(C)C)CC3)cc21` (centres undefined) had a melting point of 135 to 143 °C.

`O=C(N[C@@H](Cc1ccccc1)[C@@H](O)[C@H](O)[C@H](Cc1ccccc1)NC(=O)OCc1cccnc1)OCc1cccnc1` displayed a melting point of 180 to 186 °C.

Molecule `COC(=O)CCCc1cc2cc(C(F)(F)F)ccc2[nH]1` displayed a melting point of 115 °C.

As for `CN1CCC(C)(O)c2cccc(CSc3nc4ccccc4[nH]3)c21` (centres undefined), the melting point lay in the range of 156 to 157 °C.

As for `COc1c(N2CC(C)C(N)C(C)(C)C2)c(F)cc2c(=O)c(C(=O)O)cn(C3CC3)c12` (centres undefined), the melting point is 218 to 220 °C.

Molecule `CCc1cc(-c2nc(C)c(-c3ccnc(Nc4cccc(CNC(C)=O)c4)n3)s2)ccn1` had a melting point of 180 to 182 °C.

Regarding `O=C(NCc1cccs1)c1ccc(Cl)cc1`, the melting point lay within 153 to 154 °C.

Molecule `CCSc1cc(C(C)(C)C)c(O)c(C(C)(C)C)c1` had a melting point of 33 °C.

Regarding `Cc1c(C)n2nnnc2c2nc(C)n(CCNS(C)(=O)=O)c12`, the melting point was more than 250 °C.

The molecule `Nc1nc2c(s1)CC(N1CCN(c3ccccn3)CC1)CC2` (single isomer, unassigned; (-)) showed a melting point of 230 to 232 °C.

As to `COc1cc(Nc2c(C#N)cnc3c(-c4ccc(CN(C)C)cc4)csc23)c(Cl)cc1Cl`, the melting point lay within 201 to 202 °C.

In turn, `O=C1c2ccc(N=CN3CCCCC3)cc2C(=O)c2ccc(N=CN3CCCCC3)cc21` had a melting point of 229 to 233 °C.

Molecule `COC(=O)c1[nH]c(Br)c(Br)c1OC(C)C` displayed a melting point of 124 to 125 °C.
